Measured values as given in patent US20180244616A1, “LACTAM COMPOSITIONS” (Conopco, Inc., a/b/a UNILEVER, priority 2015, published 2018).

How the values were obtained:
[1] = toxicity compared to other lactams having anti-microbial activity
gram-negative bacteria = test: anti-bacterial activity against gram-negative bacteria; assay type: cell-based
gram-positive bacteria = test: anti-bacterial activity against gram-positive bacteria; assay type: cell-based

With C=C1NC(=O)C=C1c1ccc(C)cc1 [5-methylene-4-(p-tolyl)pyrrol-2-one] the toxicity [1] was “unexpectedly low toxicity” and the “anti-bacterial activity against gram-negative bacteria” value (gram-negative bacteria) was “shows selective activity”.
With C=C1NC(=O)C=C1c1ccc(Cl)cc1 [4-(4-chlorophenyl)-5-methylene-pyrrol-2-one] the toxicity [1] was “unexpectedly low toxicity”, the “anti-bacterial activity against gram-negative bacteria” value (gram-negative bacteria) was “shows activity” and the “anti-bacterial activity against gram-positive bacteria” value (gram-positive bacteria) was “shows activity”.
